Assay results reported in US10538554B2, “Peptides and uses therefor as antiviral agents” (priority 2015, dated 2020).
Read-outs that look alike come from different tables or passages of the source. Bridge positions count the residues as written; N and C are the ends. Square brackets hold non-standard residues; d marks the D form. Peptide text beside a SMILES is read from it.

Assays:
[1] = test system: H9N2 A/Iran/16/2000; details: 48 h
[2] = test system: H1N1 A1/Malaysia/302/1954; details: A1/Malaysia/302/1954, 48 h
[3] = test system: H3N8 A/Miami/2/63; details: A/Miami/2/63, 48 h
[4] = test system: H3N2 A/HK/8/1968; details: A/HK/8/1968, 48 h

Compound | % inhibition H9N2 ([1]; 50 μM) | % inhibition H1N1 ([2]; 50 μM) | % inhibition H3N8 ([3]; 50 μM) | % inhibition H3N2 ([4]; 50 μM) | % inhibition H9N2 ([1]; 500 μM) | % inhibition H1N1 ([2]; 500 μM) | % inhibition H3N8 ([3]; 500 μM) | % inhibition H3N2 ([4]; 500 μM)
CC[C@@H](C)[C@H]1NC(=O)[C@@H](Cc2ccccc2)NC(=O)[C@@H](CCCNC(=N)N)NC(=O)[C@@H](Cc2ccc(O)cc2)NC(=O)[C@@H](Cc2c[nH]c3ccccc23)NC(=O)[C@@H]([C@H](C)O)NC(=O)[C@H](NC(=O)[C@H](CCCCN)NC(=O)[C@H](CCCCN)NC(=O)[C@H](CCCNC(=N)N)NC(=O)[C@@H](N)CCCNC(=N)N)CSSC[C@H](C(=O)O)NC(=O)[C@@H](CC(N)=O)NC1=O [PSP III B20, H-RRKKctwyrfinc-OH] (H-RRKK[dC][dT][dW][dY][dR][dF][dI][dN][dC]-OH; disulfide 5-13) | 86% | 83% | 96% | 100% | – | – | – | –
CC[C@@H](C)[C@H]1NC(=O)[C@@H](Cc2ccccc2)NC(=O)[C@@H](CCCNC(=N)N)NC(=O)[C@@H](CCCNC(=N)N)NC(=O)[C@@H](Cc2c[nH]c3ccccc23)NC(=O)[C@@H]([C@H](C)O)NC(=O)[C@H](NC(=O)[C@H](CCCCN)NC(=O)[C@H](CCCCN)NC(=O)[C@H](CCCNC(=N)N)NC(=O)[C@@H](N)CCCNC(=N)N)CSSC[C@H](C(=O)O)NC(=O)[C@@H](CC(N)=O)NC1=O [PSP III B15, H-RRKKctwrrfinc-OH] (H-RRKK[dC][dT][dW][dR][dR][dF][dI][dN][dC]-OH; disulfide 5-13) | 84% | 83% | 91% | 100% | – | – | – | –
CC(C)C[C@H]1NC(=O)[C@@H](Cc2ccccc2)NC(=O)[C@@H](CCCNC(=N)N)NC(=O)[C@@H](CO)NC(=O)[C@@H](CCCCN)NC(=O)[C@@H]([C@H](C)O)NC(=O)[C@H](N)CSSC[C@H](C(=O)O)NC(=O)[C@@H](CC(N)=O)NC1=O [PSP 10, H-ctksrflnc-OH] (H-[dC][dT][dK][dS][dR][dF][dL][dN][dC]-OH; disulfide 1-9) | – | – | – | – | 50% | 88.2% | 82.5% | 95.5%
CC[C@@H](C)[C@H]1NC(=O)[C@@H](Cc2ccccc2)NC(=O)[C@@H](CCCNC(=N)N)NC(=O)CNC(=O)[C@@H](Cc2c[nH]c3ccccc23)NC(=O)[C@@H]([C@H](C)O)NC(=O)[C@H](NC(=O)[C@H](CCCCN)NC(=O)[C@H](CCCCN)NC(=O)[C@H](CCCNC(=N)N)NC(=O)[C@@H](N)CCCNC(=N)N)CSSC[C@H](C(=O)O)NC(=O)[C@@H](CC(N)=O)NC1=O [PSP III B6, H-RRKKctwGrfinc-OH] (H-RRKK[dC][dT][dW]G[dR][dF][dI][dN][dC]-OH; disulfide 5-13) | 93% | 85% | 96% | 100% | – | – | – | –
CC[C@@H](C)[C@H]1NC(=O)[C@@H](Cc2ccccc2)NC(=O)[C@@H](CCCNC(=N)N)NC(=O)[C@@H](CS)NC(=O)[C@@H](Cc2c[nH]c3ccccc23)NC(=O)[C@@H]([C@H](C)O)NC(=O)[C@H](NC(=O)[C@H](CCCCN)NC(=O)[C@H](CCCCN)NC(=O)[C@H](CCCNC(=N)N)NC(=O)[C@@H](N)CCCNC(=N)N)CSSC[C@H](C(=O)O)NC(=O)[C@@H](CC(N)=O)NC1=O [PSP III B2, H-RRKKctwcrfinc-OH] (H-RRKK[dC][dT][dW][dC][dR][dF][dI][dN][dC]-OH; disulfide 5-13) | 74% | 71% | 87% | 96% | – | – | – | –
C[C@H](O)[C@H]1NC(=O)[C@H](N)CSSC[C@H](C(=O)O)NC(=O)[C@@H](CC(N)=O)NC(=O)[C@@H](C)NC(=O)[C@@H](Cc2ccccc2)NC(=O)[C@@H](CCCNC(=N)N)NC(=O)[C@@H](CO)NC(=O)[C@@H](CCCCN)NC1=O [PSP 1, H-ctksrfanc-OH] (H-[dC][dT][dK][dS][dR][dF][dA][dN][dC]-OH; disulfide 1-9) | – | – | – | – | 36.4% | 29.4% | 79.4% | 70.4%
CC[C@@H](C)[C@H]1NC(=O)[C@@H](Cc2ccccc2)NC(=O)[C@@H](CCCNC(=N)N)NC(=O)[C@@H](C)NC(=O)[C@@H](Cc2c[nH]c3ccccc23)NC(=O)[C@@H]([C@H](C)O)NC(=O)[C@H](NC(=O)[C@H](CCCCN)NC(=O)[C@H](CCCCN)NC(=O)[C@H](CCCNC(=N)N)NC(=O)[C@@H](N)CCCNC(=N)N)CSSC[C@H](C(=O)O)NC(=O)[C@@H](CC(N)=O)NC1=O [PSP III B1, H-RRKKctwarfinc-OH] (H-RRKK[dC][dT][dW][dA][dR][dF][dI][dN][dC]-OH; disulfide 5-13) | 95% | 85% | 96% | 92% | – | – | – | –
CC[C@@H](C)[C@H]1NC(=O)[C@@H](Cc2ccccc2)NC(=O)[C@@H](CCCNC(=N)N)NC(=O)[C@@H](CCCCN)NC(=O)[C@@H](Cc2c[nH]c3ccccc23)NC(=O)[C@@H]([C@H](C)O)NC(=O)[C@H](NC(=O)[C@H](CCCCN)NC(=O)[C@H](CCCCN)NC(=O)[C@H](CCCNC(=N)N)NC(=O)[C@@H](N)CCCNC(=N)N)CSSC[C@H](C(=O)O)NC(=O)[C@@H](CC(N)=O)NC1=O [PSP III B9, H-RRKKctwkrfinc-OH] (H-RRKK[dC][dT][dW][dK][dR][dF][dI][dN][dC]-OH; disulfide 5-13) | 90% | 90% | 96% | 96% | – | – | – | –
CC[C@@H](C)[C@H]1NC(=O)[C@@H](Cc2ccccc2)NC(=O)[C@@H](CCCNC(=N)N)NC(=O)[C@@H](CCC(N)=O)NC(=O)[C@@H](Cc2c[nH]c3ccccc23)NC(=O)[C@@H]([C@H](C)O)NC(=O)[C@H](NC(=O)[C@H](CCCCN)NC(=O)[C@H](CCCCN)NC(=O)[C@H](CCCNC(=N)N)NC(=O)[C@@H](N)CCCNC(=N)N)CSSC[C@H](C(=O)O)NC(=O)[C@@H](CC(N)=O)NC1=O [PSP III B14, H-RRKKctwqrfinc-OH] (H-RRKK[dC][dT][dW][dQ][dR][dF][dI][dN][dC]-OH; disulfide 5-13) | 86% | 83% | 87% | 96% | – | – | – | –
CC[C@@H](C)[C@H]1NC(=O)[C@@H](Cc2ccccc2)NC(=O)[C@@H](CCCNC(=N)N)NC(=O)[C@@H]([C@H](C)O)NC(=O)[C@@H](Cc2c[nH]c3ccccc23)NC(=O)[C@@H]([C@H](C)O)NC(=O)[C@H](NC(=O)[C@H](CCCCN)NC(=O)[C@H](CCCCN)NC(=O)[C@H](CCCNC(=N)N)NC(=O)[C@@H](N)CCCNC(=N)N)CSSC[C@H](C(=O)O)NC(=O)[C@@H](CC(N)=O)NC1=O [PSP III B17, H-RRKKctwtrfinc-OH] (H-RRKK[dC][dT][dW][dT][dR][dF][dI][dN][dC]-OH; disulfide 5-13) | 86% | 79% | 96% | 96% | – | – | – | –
C[C@H](O)[C@H]1NC(=O)[C@H](N)CSSC[C@H](C(=O)O)NC(=O)[C@@H](CC(N)=O)NC(=O)[C@@H](CC(=O)O)NC(=O)[C@@H](Cc2ccccc2)NC(=O)[C@@H](CCCNC(=N)N)NC(=O)[C@@H](CO)NC(=O)[C@@H](CCCCN)NC1=O [PSP 3, H-ctksrfdnc-OH] (H-[dC][dT][dK][dS][dR][dF][dD][dN][dC]-OH; disulfide 1-9) | – | – | – | – | >50% | 29.4% | 67% | 74.1%
